Experimental data from patent US5256686A, “Phenylalkan(en)oic acid” (Ono Pharmaceutical Co., Ltd., priority 1989, dated 1993).

Columns and labels:
[1] = tested on: Human PMNLs; experiment: Inhibition of human PMNLs aggregation (LTB4-induced); assay type: cell-based; conditions: PMNL, LTB4 10^-8 M solution, 3 min preincubation at 37° C., pH 7.4
Experimental: ii) Inhibition of Human PMNLs aggregation
The purified human PMNLs were suspended in Hank's-0.5% BSA medium (pH 7.4) at 1×10^7 cells/ml. The PMNLs suspentions (200 μl) were preincubated with varying concentrations of tasted compounds for 3 min at 37° C. prior to the addition of 10^-8 M solution ([…]) of LTB4 in Hank's solution. PMNLs aggregation in vitro was performed with a multichannel platelet aggregometer. Aggregation was detected as change in light transmission with an aggregometer.

[2] = target: T1, human PMNL LTB4 receptor (Homo sapiens, UniProt Q15722); experiment: Binding affinity of 3H-LTB4 antagonist to human PMNL LTB4 receptor (inhibition of specific 3H-LTB4 binding); conditions: 1 nM 3H-LTB4, human PMNLs, 4° C., 20 min
T1 construct: endogenous in cells; host or cells: human polymorphonuclear leukocytes (PMNL), intact cells
T1 sequence (Q15722 whole entry): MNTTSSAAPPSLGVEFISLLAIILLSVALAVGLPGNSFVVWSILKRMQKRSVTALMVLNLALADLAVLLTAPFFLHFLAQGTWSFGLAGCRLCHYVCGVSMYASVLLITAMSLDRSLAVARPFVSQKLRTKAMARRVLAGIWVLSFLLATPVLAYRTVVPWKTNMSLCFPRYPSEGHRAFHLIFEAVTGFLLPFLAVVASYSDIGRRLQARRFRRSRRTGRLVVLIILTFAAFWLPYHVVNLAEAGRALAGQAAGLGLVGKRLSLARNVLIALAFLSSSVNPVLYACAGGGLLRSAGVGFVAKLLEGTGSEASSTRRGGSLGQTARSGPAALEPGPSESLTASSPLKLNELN
Experimental: Human PMNLS (1×10^7 cells) were incubated with 1 nM ^3 H-LTB4 in Hanks balanced salt solution (1 ml) at 4° C. for 20 min. in the presence or absence of increasing concentrations of unlabeled LTB4 or various compounds. Free ^3 H-LTB4 was separated from PMNLs-bound ligands by vacuum filteration through Whatman GF/B or C glass fiber filters. The filters were then washed rapidly 4 times with 2.5 ml of the ice-cold phosphate buffered saline. The radioactivity retained in the filter was determined by liquid scintillation counting. Specific binding was defined as the difference between total binding and binding in the presence of 3 μM LTB4 (nonspecific binding). The inhibitory effect of specific ^3 H-LTB4 binding was calculated from the following equation.
The percentage of inhibition (%)=100-(B1 /B0 ×100)
B1 : specific ^3 H-LTB4 binding in presence of antagonist
B0 : specific ^3 H-LTB4 binding in absence of antagonist

[3] = Acute toxicity (LD50) in mouse; conditions: in vivo
Text: It was confirmed that the toxicity of the compounds, of the present invention were very low. […] Accordingly, it was confirmed that the compounds of the present invention were useful for pharmaceutical agent.

| SMILES | IC50 [1] [nM] | IC50 [2] [nM] | LD50 ([3]; intravenous administration) [mg/kg] | LD50 ([3]; oral administration) [mg/kg] |
| --- | --- | --- | --- | --- |
| COc1ccc(/C=C/CCCCOc2ccc(NC(=O)c3cccc(C(=O)O)c3)cc2CCC(=O)O)cc1 [2 (b), 3-[1-[6-(4-methoxyphenyl)hex-5E-enyl]oxy-4-(3-carboxylbenzamido)benzen-2-yl]propionic acid] | 7400 | 20 | – | – |
| COc1ccc(/C=C/CCCCOc2cccc(OCCCCN3CCCC3=O)c2CCC(=O)O)cc1 [30 (a), 3-[1-[6-(4-methoxyphenyl)hex-5E-enyl]oxy-3-[4-(2-pyrrolidon-1-yl)-n-butoxy]benzen-2-yl]propionic acid] | 1100 | 70 | – | – |
| COc1ccc(/C=C/CCCCOc2cccc(OCCCCC(=O)O)c2CCC(=O)O)cc1 [31 (a), 3-[1-[6-(4-methoxyphenyl)hex-5E-enyl]oxy-3-(4-carboxylbutyl)oxybenzen-2-yl]propionic acid] | 1900 | – | 260 | 2200 |
| COc1ccc(/C=C/CCCCOc2ccc(OCCCCC(=O)N(C)C)cc2CCC(=O)O)cc1 [Example 16, 3-[1-[6-(4-methoxyphenyl)hex-5E-enyl]oxy-4-(4-dimethylaminocarbonyl-n-butyl)oxybenzen-2-yl]propionic acid] | 7000 | 90 | – | – |
| COc1ccc(/C=C/CCCCOc2ccc(C(O)CCCC(=O)N(C)C)cc2CCC(=O)O)cc1 (stereo not shown) [Example 20, 3-[1-[6-(4-methoxyphenyl)hex-5E-enyl]oxy-4-(1-hydroxy-4-dimethylaminocarbonylbutyl)benzen-2-yl]propionic acid] | 2000 | 3.6 | – | – |
| COc1ccc(/C=C/CCCCOc2cccc(OCCCCC(=O)N(C)C)c2CCC(=O)O)cc1 [Example 30, 3-[1-[6-(4-methoxyphenyl)hex-5E-enyl]oxy-3-(4-dimethylaminocarbonylbutyl)oxybenzen-2-yl]propionic acid] | 840 | 16 | 175 | 3900 |
| COc1ccc(/C=C/CCCCOc2cccc(OCCCC(=O)O)c2CCC(=O)O)cc1 [Example 31, 3-[1-[6-(4-methoxyphenyl)hex-5E-enyl]oxy-3-(3-carboxylpropyl)oxybenzen-2-yl]propionic acid] | 6000 | 40 | – | – |
| COc1ccc(/C=C/CCCCOc2cccc(NC(=O)CCCC(=O)N(C)C)c2CCC(=O)O)cc1 [Example 32, 3-[1-[6-(4-methoxyphenyl)hex-5E-enyl]oxy-3-(4-dimethylaminocarbonylbutanamido)benzen-2-yl]propionic acid] | 5400 | 50 | – | – |
| COc1ccc(/C=C/CCCCOc2cccc(CCCCCC(=O)N(C)C)c2CCC(=O)O)cc1 [Example 34, 3-[1-[6-(4-methoxyphenyl)hex-5E-enyl]oxy-3-(5-dimethylaminocarbonylpentyl)benzen-2-yl]propionic acid] | 810 | 20 | – | – |
| COc1ccc(/C=C/CCCCOc2cccc(C(=O)CCCCC(=O)O)c2CCC(=O)O)cc1 [Example 37, 3-[1-[6-(4-methoxyphenyl)hex-5E-enyl]oxy-3-(1-oxo-5-carboxylpentyl)benzen-2-yl]propionic acid] | 1700 | 6 | – | – |
| COc1ccc(/C=C/CCCCOc2cccc(C(O)CCCCC(=O)O)c2CCC(=O)O)cc1 (stereo not shown) [Example 38, 3-[1-[6-(4-methoxyphenyl)hex-5E-enyl]oxy-3-(1-hydroxy-5-carboxylpentyl)benzen-2-yl]propionic acid] | 4900 | 120 | – | – |
